{
  "source": "patent US7399462B2",
  "about": "“Protectant for UV-induced skin damage” (QLT USA, Inc., priority 2002, dated 2008)",
  "key": {"UV-induced tumors": {"tested_on": "UV-induced tumors", "conditions": "topical; UV induced mouse carcinogenicity model; cited from earlier work"}, "[1]": {"tested_on": "UV-induced skin tumor formation"}},
  "data": [
    {"compound": "O=C(OOC(=O)c1ccccc1)c1ccccc1", "note": "[Benzoyl peroxide]", "values": [
      {"measurement": "Formation of skin tumors compared to untreated or vehicle controls", "setting": "UV-induced tumors", "value": "promote the formation of skin tumors"}
    ]},
    {"compound": "Nc1ccc(S(=O)(=O)c2ccc(N)cc2)cc1", "note": "[Dapsone, bis(4-aminophenyl)sulfone]", "values": [
      {"measurement": "Effect on Unbiased Median Weeks to Tumor (in words)", "setting": "[1]; 600 RBU/week", "value": "increased the Unbiased Median Weeks to Tumor in a dose-dependent manner"},
      {"measurement": "Tumor Potency Ratio (≧1 mm Tumor Size), Sexes Combined", "setting": "[1]; UVR 600 RBU/week, sexes combined, calculated from Unbiased Median Week to Tumor and untreated 600/1200 RBU calibration", "value": "reduced with dapsone application in a dose-dependent manner"}
    ]},
    {"compound": "CC1=C(/C=C/C(C)=C/C=C/C(C)=C/C(=O)O)C(C)(C)CCC1", "note": "[tretinoin]", "values": [
      {"measurement": "Formation of skin tumors compared to untreated or vehicle controls", "setting": "UV-induced tumors", "value": "promote the formation of skin tumors"}
    ]}
  ]
}
